Where two headings read alike, the source gives them in different places. Starred links: 1 amine or outer side, 2 acyl side, 3 side chain; linkers in the order of their positions; H or OH if unused. Positions of bridges follow the written chain, without caps; N, C: chain ends. Non-standard residues stand in square brackets, D forms with d. Residues, ends and D or L forms follow the SMILES beside them. *: point of attachment. Me3N+CH2CH2(OCH2CH2)4CO = C[N+](C)(C)CCOCCOCCOCCOCCC(=O)*; Me3N+(CH2)2O(CH2)2O(CH2)2CO = C[N+](C)(C)CCOCCOCCC(=O)*; CH2CH2OCH2CH2OCH2CH2NMe3+ = C[N+](C)(C)CCOCCOCC*; Trp(7-Me) = Cc1cccc2c(C[C@H](N)C(=O)O)c[nH]c12; X1 = CN(CC[C@H](N[*:1])C(=O)[*:2])[*:3]; 2Nal = N[C@@H](Cc1ccc2ccccc2c1)C(=O)O; AEF = NCCOc1ccc(C[C@H](N)C(=O)O)cc1; 3Pal = N[C@@H](Cc1cccnc1)C(=O)O; Lys(Me) = CNCCCC[C@H](N)C(=O)O; Pen = CC(C)(S)[C@H](N)C(=O)O; Thp = NC1(C(=O)O)CCOCC1; X3 = C[N+](C)(C)CCCCC*; Sar = CNCC(=O)O
Experiments:
IL-23R = target: T1, IL-23R (Homo sapiens, UniProt Q5VWK5); assay: IL23R Reporter Assay; type: cell-based; conditions: HEK293 cells containing IL-23R, IL-12RP1 and STAT-inducible firefly luciferase reporter; 10 ng/mL IL-23 (EC90); 5 h at 37° C.; read-out: IL23R Reporter Assay
T1 construct: host or cells: HEK293
T1 sequence (Q5VWK5 24-629): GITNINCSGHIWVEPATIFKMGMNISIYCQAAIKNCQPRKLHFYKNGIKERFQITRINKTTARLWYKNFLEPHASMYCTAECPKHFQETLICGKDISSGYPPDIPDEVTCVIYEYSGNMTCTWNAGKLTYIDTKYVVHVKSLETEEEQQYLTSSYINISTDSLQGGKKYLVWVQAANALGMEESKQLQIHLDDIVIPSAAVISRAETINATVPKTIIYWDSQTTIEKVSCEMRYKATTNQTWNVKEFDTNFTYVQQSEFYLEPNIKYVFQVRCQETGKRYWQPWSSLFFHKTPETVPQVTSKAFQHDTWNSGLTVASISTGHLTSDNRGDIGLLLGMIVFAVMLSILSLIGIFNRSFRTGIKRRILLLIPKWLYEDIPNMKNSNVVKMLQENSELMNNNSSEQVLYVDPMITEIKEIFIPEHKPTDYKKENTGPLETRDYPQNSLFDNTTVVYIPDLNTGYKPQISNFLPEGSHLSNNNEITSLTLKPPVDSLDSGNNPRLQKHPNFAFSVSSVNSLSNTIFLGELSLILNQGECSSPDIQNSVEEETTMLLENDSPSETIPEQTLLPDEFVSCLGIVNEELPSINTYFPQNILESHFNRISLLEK

[1] = target: T2, interleukin-23 (IL-23) receptor (Homo sapiens, UniProt Q5VWK5); assay: PBMC pSTAT3 assay; type: cell-based
T2 construct: Cryopreserved peripheral blood mononuclear cells (PBMCs) from healthy donors were thawed; endogenous in cells; host or cells: cryopreserved PBMCs from healthy donors, expanded 4 days on anti-CD3 with IL-1
T2 sequence (Q5VWK5 24-629): T1 sequence (Q5VWK5 24-629)
Method: Cryopreserved peripheral blood mononuclear cells (PBMCs) from healthy donors were thawed and washed twice in ImmunoCult-XF T cell expansion medium (XF-TCEM) supplemented with CTL anti-aggregate wash. The cells were counted, resuspended at 2×10^5 cells per mL XF-TCEM supplemented with penicillin/streptomycin and 100 ng/mL IL-1 (BioLegend, 579404), and cultured in tissue culture flasks coated with anti-CD3 (eBioscience, 16-0037-85 or BD Pharmingen, 555329) at 37° C. in 5% CO2. On day 4 of culture, PBMCs were collected, washed twice in RPMI-1640 supplemented with 0.1% BSA (RPMI-BSA), and incubated in RPMI-BSA in upright tissue culture flasks for 4 hours at 37° C. in 5% CO2. Following this ‘starvation,’ a total of 6×10^4 cells in […] RPMI-BSA was transferred into each well of a 384-well plate pre-spotted with peptide or DMSO. The cells were incubated for 30 minutes prior to the addition of IL-23 at a final concentration of 5 ng/mL. The cells were stimulated with cytokine for 30 minutes at 37° C. in 5% CO2, transferred onto ice for 10 minutes, and lysed. Cell lysates were stored at −80° C. until phosphorylated STAT3 was measured using the phospho-STAT panel kit (Meso Scale Discovery, K15202D).

[2] = Exposed Polar Surface Area (EPSA); type: physicochemical; conditions: SFC on Chirex 3014 column, sample 1 mM DMSO stock
Procedure, shortened: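 Retention-based polarity: supercritical CO2 with 20 mM ammonium formate in MeOH (5–60%, 20%/min), Chirex 3014 column, 35 °C. Calibrated against 8 standards to give EPSA (Å^2); each sample measured twice.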

[3] = disulfide bond, 20-membered ring

IC50 (IL-23R) [nM] | IC50 [1] [nM] | EPSA ([2]; read-out: EPSA) [A^2] | Molecule | also measured
2 | 0.037 | 136 | CC(=O)N(C)CCCC[C@@H]1NC(=O)[C@H](Cc2c[nH]c3c(C)cccc23)NC(=O)[C@H]([C@@H](C)O)NC(=O)[C@H](CC(=O)N(C)C)NC(=O)[C@@H](NC(=O)CCOCCOCC[N+](C)(C)C)C(C)(C)SSC(C)(C)[C@@H](C(=O)N[C@@H](Cc2ccc(OCCOCCOCC[N+](C)(C)C)cc2)C(=O)N[C@@H](Cc2ccc3ccccc3c2)C(=O)NC2(C(=O)N[C@@H](CCCCN(C)C(C)=O)C(=O)N[C@@H](CC(N)=O)C(=O)N[C@@H](Cc3cccnc3)C(=O)N(C)CC(=O)N(C)C)CCOCC2)NC1=O [compound 181, cPEG3aCO-Pen(3)-N(N(Me)2)-T-7MeW-K(NMeAc)-Pen(3)-APEG3F-2Nal-THP-K(NMeAc)-N-3Pya-Sar-CON(Me)2] ({Me3N+(CH2)2O(CH2)2O(CH2)2CO}-[Pen]D(NMe2)T[Trp(7-Me)][Lys(Me)](Ac)[Pen]Y(CH2CH2OCH2CH2OCH2CH2NMe3+)[2Nal][Thp][Lys(Me)](Ac)N[3Pal][Sar]-NMe2; disulfide 1-6) | –
~6290 | 0.0076 | 166 | CC(=O)NCCCC[C@H](NC(=O)C1(NC(=O)[C@H](Cc2ccc3ccccc3c2)NC(=O)[C@H](Cc2ccc(OCCN)cc2)NC(=O)[C@H]2NC(=O)[C@H](CCCCN(C)C(C)=O)NC(=O)[C@H](Cc3c[nH]c4c(C)cccc34)NC(=O)[C@H]([C@@H](C)O)NC(=O)[C@H](CC(N)=O)NC(=O)[C@@H](NC(C)=O)C(C)(C)SSC2(C)C)CCOCC1)C(=O)N[C@@H](CC(N)=O)C(=O)N[C@@H](Cc1cccnc1)C(=O)N(C)CC(N)=O [SEQ ID 57] (Ac-[Pen]NT[Trp(7-Me)][Lys(Me)](Ac)[Pen][AEF][2Nal][Thp]K(Ac)N[3Pal][Sar]-NH2; disulfide 1-6) | EPSA ([2]; listed as 1): 179.2 Å^2
– | – | – | CF3CO-Pen(3)-N(N(Me)2)-T-7MeW-K(NMeAc)-Pen(3)-AEF-2Nal-THP-K(NMeAc)-N-3Pya-Sar-CON(Me)2 | ring closure, yield after HPLC ([3]; I2/MeOH, 20% MeCN/H2O, 0.56 mM): 12.1%
– | – | – | MeCO-k(Me)3-Pen(3)-N(N(Me)2)-T-7MeW-K(NMeAc)-Pen(3)-AEF(N(Me)2)-2Nal-THP-E-N-3Pya-Sar-CON(Me)2 | ring closure, yield after HPLC ([3]; I2/AcOH, MeCN/H2O, […]): 13.4%
– | – | – | cPEG5aCO-Pen(3)-N(N(Me)2)-T-7MeW-Dab(NMecPEG5a)-Pen(3)-AEF-2Nal-THP-E-N-3Pya-Sar-CON(Me)2 | ring closure, yield after HPLC ([3]; I2/AcOH, MeCN/H2O, 2.05 mM): 10%
5.7 | 0.022 | 158 | Cc1cccc2c(C[C@@H]3NC(=O)[C@H]([C@@H](C)O)NC(=O)[C@H](CC(=O)N(C)C)NC(=O)[C@@H](NC(=O)CCOCCOCCOCCOCC[N+](C)(C)C)C(C)(C)SSC(C)(C)[C@@H](C(=O)N[C@@H](Cc4ccc(OCCN)cc4)C(=O)N[C@@H](Cc4ccc5ccccc5c4)C(=O)NC4(C(=O)N[C@@H](CCC(=O)O)C(=O)N[C@@H](CC(N)=O)C(=O)N[C@@H](Cc5cccnc5)C(=O)N(C)CC(=O)N(C)C)CCOCC4)NC(=O)[C@H](CCN(C)C(=O)CCOCCOCCOCCOCC[N+](C)(C)C)NC3=O)c[nH]c12 [compound 145, cPEG5aCO-Pen(3)-N(N(Me)2)-T-7MeW-Dab(NMecPEG5a)-Pen(3)-AEF-2Nal-THP-E-N-3Pya-Sar-CON(Me)2] ({Me3N+CH2CH2(OCH2CH2)4CO}-[Pen]D(NMe2)T[Trp(7-Me)][X1](Me3N+CH2CH2(OCH2CH2)4CO)[Pen][AEF][2Nal][Thp]EN[3Pal][Sar]-NMe2; disulfide 1-6) | –
1.6 | 0.0075 | 158 | CC(=O)NCCCC[C@@H]1NC(=O)[C@H](Cc2c[nH]c3c(C)cccc23)NC(=O)[C@H]([C@@H](C)O)NC(=O)[C@H](CC(N)=O)NC(=O)[C@@H](NC(C)=O)C(C)(C)SSC(C)(C)[C@@H](C(=O)N[C@@H](Cc2ccc(OCCCCC[N+](C)(C)C)cc2)C(=O)N[C@@H](Cc2ccc3ccccc3c2)C(=O)NC2(C(=O)N[C@@H](CCCCNC(C)=O)C(=O)N[C@@H](CC(N)=O)C(=O)N[C@@H](Cc3cccnc3)C(=O)N(C)CC(N)=O)CCOCC2)NC1=O [compound 281, MeCO-Pen(3)-N-T-7MeW-K(Ac)-Pen(3)-TMAPF-2Nal-THP-K(Ac)-N-3Pya-Sar-CONH2] (Ac-[Pen]NT[Trp(7-Me)]K(Ac)[Pen]Y(X3)[2Nal][Thp]K(Ac)N[3Pal][Sar]-NH2; disulfide 1-6 (inferred)) | –
